{"source": "ChEMBL document CHEMBL4393743", "about": "“Anti-tumor activity evaluation of novel tubulin and HDAC dual-targeting inhibitors” (Bioorg Med Chem Lett, 2019)", "key": {"A549 [1]": {"system": "A549", "assay": "Induction of cell cycle arrest in human A549 cells assessed as accumulation at S phase at 10 uM incubated for 36 hrs by propidium iodide staining based flow cytometry (reference value: 16.66%)", "assay_type": "functional"}, "A549 [2]": {"system": "A549", "assay": "Induction of apoptosis in human A549 cells assessed as live cells at 10 uM incubated for 72 hrs by Annexin V-FITC/propidium iodide-staining based flow cytometric analysis (reference value: 89.8%)", "assay_type": "functional"}, "Tubulin": {"target": "Tubulin", "assay": "Inhibition of tubulin polymerization (unknown origin) by spectrophotometric method", "assay_type": "protein-complex assay, Homo sapiens"}, "A549 [3]": {"system": "A549", "assay": "Induction of apoptosis in human A549 cells assessed as late apoptotic cells at 0.3 uM incubated for 72 hrs by Annexin V-FITC/propidium iodide-staining based flow cytometric analysis (reference value: 5.69%)", "assay_type": "functional"}, "BGC-823": {"system": "BGC-823", "assay": "Antiproliferative activity against human BGC823 cells assessed as cell growth inhibition incubated for 72 hrs by MTT assay", "assay_type": "functional, cell-based", "details": "BGC-823, 72 h"}, "A549 [4]": {"system": "A549", "assay": "Induction of apoptosis in human A549 cells assessed as late apoptotic cells at 1 uM incubated for 72 hrs by Annexin V-FITC/propidium iodide-staining based flow cytometric analysis (reference value: 5.69%)", "assay_type": "functional"}, "A549 [5]": {"system": "A549", "assay": "Induction of apoptosis in human A549 cells assessed as live cells at 0.1 uM incubated for 72 hrs by Annexin V-FITC/propidium iodide-staining based flow cytometric analysis (reference value: 89.8%)", "assay_type": "functional"}, "A549 [6]": {"system": "A549", "assay": "Induction of apoptosis in human A549 cells assessed as late apoptotic cells at 0.1 uM incubated for 72 hrs by Annexin V-FITC/propidium iodide-staining based flow cytometric analysis (reference value: 5.69%)", "assay_type": "functional"}, "A549 [7]": {"system": "A549", "assay": "Induction of cell cycle arrest in human A549 cells assessed as accumulation at G2/M phase incubated for 36 hrs by propidium iodide staining based flow cytometry", "assay_type": "functional"}, "A549 [8]": {"system": "A549", "assay": "Induction of apoptosis in human A549 cells assessed as early apoptotic cells at 0.3 uM incubated for 72 hrs by Annexin V-FITC/propidium iodide-staining based flow cytometric analysis (reference value: 1.8%)", "assay_type": "functional"}, "A549 [9]": {"system": "A549", "assay": "Induction of apoptosis in human A549 cells assessed as early apoptotic cells at 10 uM incubated for 72 hrs by Annexin V-FITC/propidium iodide-staining based flow cytometric analysis (reference value: 1.8%)", "assay_type": "functional"}, "A549 [10]": {"system": "A549", "assay": "Induction of cell cycle arrest in human A549 cells assessed as accumulation at S phase at 1 uM incubated for 36 hrs by propidium iodide staining based flow cytometry (reference value: 16.66%)", "assay_type": "functional"}, "A549 [11]": {"system": "A549", "assay": "Induction of apoptosis in human A549 cells assessed as late apoptotic cells at 10 uM incubated for 72 hrs by Annexin V-FITC/propidium iodide-staining based flow cytometric analysis (reference value: 5.69%)", "assay_type": "functional"}, "A549 [12]": {"system": "A549", "assay": "Induction of apoptosis in human A549 cells assessed as necrotic cells at 10 uM incubated for 72 hrs by Annexin V-FITC/propidium iodide-staining based flow cytometric analysis (reference value: 2.76%)", "assay_type": "functional"}, "A549 [13]": {"system": "A549", "assay": "Induction of apoptosis in human A549 cells assessed as necrotic cells at 1 uM incubated for 72 hrs by Annexin V-FITC/propidium iodide-staining based flow cytometric analysis (reference value: 2.76%)", "assay_type": "functional"}, "A549 [14]": {"system": "A549", "assay": "Induction of apoptosis in human A549 cells assessed as live cells at 0.3 uM incubated for 72 hrs by Annexin V-FITC/propidium iodide-staining based flow cytometric analysis (reference value: 89.8%)", "assay_type": "functional"}, "MDA-MB-231": {"system": "MDA-MB-231", "assay": "Antiproliferative activity against human MDA-MB-231 cells assessed as cell growth inhibition incubated for 72 hrs by MTT assay", "assay_type": "functional, cell-based", "details": "MDA-MB-231, 72 h"}, "A549 [15]": {"system": "A549", "assay": "Induction of cell cycle arrest in human A549 cells assessed as accumulation at G2/M phase at 1 uM incubated for 36 hrs by propidium iodide staining based flow cytometry (reference value: 10.83%)", "assay_type": "functional"}, "A549 [16]": {"system": "A549", "assay": "Induction of apoptosis in human A549 cells incubated for 72 hrs by Annexin V-FITC/propidium iodide-staining based flow cytometric analysis", "assay_type": "functional, cell-based"}, "LoVo": {"system": "LoVo", "assay": "Antiproliferative activity against human LoVo cells assessed as cell growth inhibition incubated for 72 hrs by MTT assay", "assay_type": "functional, cell-based"}, "A549 [17]": {"system": "A549", "assay": "Induction of cell cycle arrest in human A549 cells assessed as accumulation at G0/G1 phase at 0.3 uM incubated for 36 hrs by propidium iodide staining based flow cytometry (reference value: 72.51%)", "assay_type": "functional"}, "A549 [18]": {"system": "A549", "assay": "Antimigratory activity in human A549 cells at 5 to 10 uM incubated for 12 hrs in presence of mitomycin by inverted microscopic-based wound healing assay", "assay_type": "functional, cell-based"}, "A549 [19]": {"system": "A549", "assay": "Induction of cell cycle arrest in human A549 cells assessed as accumulation at S phase at 0.1 uM incubated for 36 hrs by propidium iodide staining based flow cytometry (reference value: 16.66%)", "assay_type": "functional"}, "A549 [20]": {"system": "A549", "assay": "Induction of apoptosis in human A549 cells assessed as early apoptotic cells at 1 uM incubated for 72 hrs by Annexin V-FITC/propidium iodide-staining based flow cytometric analysis (reference value: 1.8%)", "assay_type": "functional"}, "A549 [21]": {"system": "A549", "assay": "Induction of apoptosis in human A549 cells assessed as early apoptotic cells at 0.1 uM incubated for 72 hrs by Annexin V-FITC/propidium iodide-staining based flow cytometric analysis (reference value: 1.8%)", "assay_type": "functional"}, "Histone deacetylase 1": {"target": "Histone deacetylase 1 (Homo sapiens, UniProt Q13547)", "sequence (Q13547 whole entry)": "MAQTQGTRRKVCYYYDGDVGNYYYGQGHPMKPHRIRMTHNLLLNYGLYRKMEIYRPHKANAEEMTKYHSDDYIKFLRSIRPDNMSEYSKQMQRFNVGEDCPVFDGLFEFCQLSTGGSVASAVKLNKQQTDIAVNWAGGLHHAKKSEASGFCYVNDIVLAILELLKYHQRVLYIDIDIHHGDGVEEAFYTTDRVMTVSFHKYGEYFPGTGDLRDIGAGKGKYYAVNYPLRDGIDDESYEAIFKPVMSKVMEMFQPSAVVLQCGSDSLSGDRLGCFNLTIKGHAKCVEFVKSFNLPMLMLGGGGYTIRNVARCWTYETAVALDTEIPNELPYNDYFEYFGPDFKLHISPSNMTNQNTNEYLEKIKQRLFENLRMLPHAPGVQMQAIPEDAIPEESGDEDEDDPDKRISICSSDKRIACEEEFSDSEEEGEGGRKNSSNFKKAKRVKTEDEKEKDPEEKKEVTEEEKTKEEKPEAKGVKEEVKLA", "assay": "Inhibition of HDAC1 (unknown origin) using Boc-Lys(Ac)-AMC as substrate incubated for 60 mins by fluorescence assay"}, "A549 [22]": {"system": "A549", "assay": "Antiproliferative activity against human A549 cells assessed as cell growth inhibition incubated for 72 hrs by MTT assay", "assay_type": "functional, cell-based", "details": "A549, 72 h"}, "A549 [23]": {"system": "A549", "assay": "Induction of cell cycle arrest in human A549 cells assessed as accumulation at G2/M phase at 10 uM incubated for 36 hrs by propidium iodide staining based flow cytometry (reference value: 10.83%)", "assay_type": "functional"}, "A549 [24]": {"system": "A549", "assay": "Induction of cell cycle arrest in human A549 cells assessed as accumulation at G2/M phase at 0.3 uM incubated for 36 hrs by propidium iodide staining based flow cytometry (reference value: 10.83%)", "assay_type": "functional"}, "A549 [25]": {"system": "A549", "assay": "Induction of cell cycle arrest in human A549 cells assessed as accumulation at G0/G1 phase at 3 uM incubated for 36 hrs by propidium iodide staining based flow cytometry (reference value: 72.51%)", "assay_type": "functional"}, "MGC-803": {"system": "MGC-803", "assay": "Antiproliferative activity against human MGC803 cells assessed as cell growth inhibition incubated for 72 hrs by MTT assay", "assay_type": "functional, cell-based", "details": "MGC-803, 72 h"}, "A549 [26]": {"system": "A549", "assay": "Induction of cell cycle arrest in human A549 cells assessed as accumulation at G0/G1 phase at 1 uM incubated for 36 hrs by propidium iodide staining based flow cytometry (reference value: 72.51%)", "assay_type": "functional"}}, "note": "The source made the active and inactive calls. The rule behind the calls is not given here.", "data": [{"smiles": "COc1ccc(/C=C(\\C)C(=O)c2cc(OC)c(OC)c(OC)c2)cc1OCCCC(=O)NO", "values": [{"measurement": "Activity", "setting": "A549 [1]", "value": 16.55, "unit": "%"}, {"measurement": "Activity", "setting": "A549 [2]", "value": 54.7, "unit": "%"}, {"measurement": "IC50", "setting": "Tubulin", "value": 54.5, "unit": "µM"}, {"measurement": "Activity", "setting": "A549 [3]", "value": 10.1, "unit": "%"}, {"measurement": "IC50", "setting": "BGC-823", "value": 2.4, "unit": "µM"}, {"measurement": "Activity", "setting": "A549 [4]", "value": 26.4, "unit": "%"}, {"measurement": "Activity", "setting": "A549 [5]", "value": 84.8, "unit": "%"}, {"measurement": "Activity", "setting": "A549 [6]", "value": 9.41, "unit": "%"}, {"measurement": "Activity", "setting": "A549 [7]", "value": "Dose-dependent effect"}, {"measurement": "Activity", "setting": "A549 [8]", "value": 7.73, "unit": "%"}, {"measurement": "Activity", "setting": "A549 [9]", "value": 8.81, "unit": "%"}, {"measurement": "Activity", "setting": "A549 [10]", "value": 20.54, "unit": "%"}, {"measurement": "Activity", "setting": "A549 [11]", "value": 28.5, "unit": "%"}, {"measurement": "Activity", "setting": "A549 [12]", "value": 8, "unit": "%"}, {"measurement": "Activity", "setting": "A549 [13]", "value": 8.05, "unit": "%"}, {"measurement": "Activity", "setting": "A549 [14]", "value": 79.9, "unit": "%"}, {"measurement": "IC50", "setting": "MDA-MB-231", "value": 6.95, "unit": "µM"}, {"measurement": "Activity", "setting": "A549 [15]", "value": 62.89, "unit": "%"}, {"measurement": "Activity", "setting": "A549 [16]", "value": "Dose-dependent effect"}, {"measurement": "IC50", "setting": "LoVo", "value": 4.88, "unit": "µM"}, {"measurement": "Activity", "setting": "A549 [17]", "value": 46.23, "unit": "%"}, {"measurement": "Activity", "setting": "A549 [18]", "value": "Active"}, {"measurement": "Activity", "setting": "A549 [19]", "value": 22.09, "unit": "%"}, {"measurement": "Activity", "setting": "A549 [20]", "value": 6.6, "unit": "%"}, {"measurement": "Activity", "setting": "A549 [21]", "value": 4.25, "unit": "%"}, {"measurement": "IC50", "setting": "Histone deacetylase 1", "value": 0.996, "unit": "µM"}, {"measurement": "IC50", "setting": "A549 [22]", "value": 0.55, "unit": "µM"}, {"measurement": "Activity", "setting": "A549 [23]", "value": 81.88, "unit": "%"}, {"measurement": "Activity", "setting": "A549 [24]", "value": 13.81, "unit": "%"}, {"measurement": "Activity", "setting": "A549 [25]", "value": 9.13, "unit": "%"}, {"measurement": "IC50", "setting": "MGC-803", "value": 3.66, "unit": "µM"}, {"measurement": "Activity", "setting": "A549 [26]", "value": 16.57, "unit": "%"}]}]}
